Data on two molecules can be found in patent publication EP4778922A1, “BICYCLIC COMPOUND, AND PREPARATION METHOD THEREFOR AND PHARMACEUTICAL USE THEREOF” (Shanghai Jeyou Pharmaceutical Co., Ltd., priority 2023, dated 2025).

A word on the AUC(0-inf): it is total exposure, with the tail of the curve extrapolated. A lower AUC(0-inf) goes with less exposure. As usually defined, the Cmax is the highest concentration seen after dosing. A word on the half-life: it is how long it takes for the measured level to halve. The low end stands for fast loss, the high end for slow loss. Broadly, the Tmax is the time from dosing to the highest level. What is called IC50 is the concentration at which inhibition is half-maximal. As a reminder, the clearance is the volume of plasma or blood freed of the substance per unit of time. Lower therefore signals inefficient removal. As a reminder, the bioavailability is the share of a dose that reaches the circulation, judged against a reference dose that is usually intravenous.

Where two headings read alike, the source gives them in different places.

Series [1] can be described thus: Mouse pharmacokinetic test. Format: in vivo, ICR mice. The settings on record: plasma; for Tmax: read-out: Tmax. The method, boiled down: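 Male naive ICR mice (25–30 g, n=3 per route) received a single intravenous or oral dose, with feeding resumed 4 h post-dose. Blood was centrifuged at 4°C, and plasma was stored at -80°C until analysis.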
The target in the next series is T1, CYP2C19 (Homo sapiens, UniProt P33261).
T1 construct: co-incubated with human liver microsomes; from tissue; host or cells: human liver microsomes
Kind of series: CYP inhibition assay in human liver microsomes. It is filed as in vitro ADME. The settings on record: human liver microsomes, NADPH; read-out: CYPs 2C19 (IC50). The gist of the method: (§1)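 Human liver microsomes co-incubated with isozyme-specific probe substrates and compound at 0–10.0 µM (0, 0.0300, 0.100, 0.300, 1.00, 3.00, 10.0 µM), reaction started with NADPH. Probe metabolites quantified by LC-MS/MS; IC50 derived from dose-response curves.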

The target in a further series is T2, CYP2D6 (Homo sapiens, UniProt P10635).
T2 construct: co-incubated with human liver microsomes; from tissue; host or cells: human liver microsomes
Kind of series: CYP inhibition assay in human liver microsomes. Format: in vitro ADME. The following applies: human liver microsomes, NADPH; read-out: CYPs 2D6 (IC50). The gist of the method:
as §1
On the technique in general: Liver microsomes are vesicles of endoplasmic reticulum, rich in cytochrome P450 enzymes.

In the next series the target is T3, CYP2C9 (Homo sapiens, UniProt P11712).
T3 construct: co-incubated with human liver microsomes; from tissue; host or cells: human liver microsomes
Description: CYP inhibition assay in human liver microsomes. Format: in vitro ADME. The settings on record: human liver microsomes, NADPH; read-out: CYPs 2C9 (IC50). The gist of the method: as §1

Series [2] deals with T4, CYP3A4 (testosterone/midazolam) (Homo sapiens, UniProt P08684).
T4 construct: co-incubated with human liver microsomes; from tissue; host or cells: human liver microsomes
Kind of series: CYP inhibition assay in human liver microsomes. It is filed as in vitro ADME. The gist of the method: as §1

The target in another series is T5, CYP2C8 (Homo sapiens, UniProt P10632).
T5 construct: co-incubated with human liver microsomes; from tissue; host or cells: human liver microsomes
T5 sequence (P10632 1-490): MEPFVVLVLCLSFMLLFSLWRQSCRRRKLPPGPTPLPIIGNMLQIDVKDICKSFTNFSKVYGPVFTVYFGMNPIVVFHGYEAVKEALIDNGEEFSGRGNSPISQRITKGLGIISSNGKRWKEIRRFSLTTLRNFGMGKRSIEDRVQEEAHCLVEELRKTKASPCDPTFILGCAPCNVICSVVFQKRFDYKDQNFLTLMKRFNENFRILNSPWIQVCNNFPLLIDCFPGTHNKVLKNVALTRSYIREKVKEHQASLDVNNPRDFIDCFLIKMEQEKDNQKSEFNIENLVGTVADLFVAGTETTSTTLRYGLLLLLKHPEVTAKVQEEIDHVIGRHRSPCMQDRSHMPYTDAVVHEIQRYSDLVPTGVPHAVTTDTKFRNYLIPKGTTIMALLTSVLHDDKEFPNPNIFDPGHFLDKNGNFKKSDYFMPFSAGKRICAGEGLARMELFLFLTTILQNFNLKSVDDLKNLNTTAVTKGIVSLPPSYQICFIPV
Kind of series: CYP inhibition assay in human liver microsomes. The settings on record: human liver microsomes, NADPH; read-out: CYPs 2C8 (IC50). Format: in vitro ADME. The method, boiled down: as §1

A further series deals with T6, CYP1A2 (Homo sapiens, UniProt P05177).
T6 construct: co-incubated with human liver microsomes; from tissue; host or cells: human liver microsomes
T6 sequence (P05177 1-516): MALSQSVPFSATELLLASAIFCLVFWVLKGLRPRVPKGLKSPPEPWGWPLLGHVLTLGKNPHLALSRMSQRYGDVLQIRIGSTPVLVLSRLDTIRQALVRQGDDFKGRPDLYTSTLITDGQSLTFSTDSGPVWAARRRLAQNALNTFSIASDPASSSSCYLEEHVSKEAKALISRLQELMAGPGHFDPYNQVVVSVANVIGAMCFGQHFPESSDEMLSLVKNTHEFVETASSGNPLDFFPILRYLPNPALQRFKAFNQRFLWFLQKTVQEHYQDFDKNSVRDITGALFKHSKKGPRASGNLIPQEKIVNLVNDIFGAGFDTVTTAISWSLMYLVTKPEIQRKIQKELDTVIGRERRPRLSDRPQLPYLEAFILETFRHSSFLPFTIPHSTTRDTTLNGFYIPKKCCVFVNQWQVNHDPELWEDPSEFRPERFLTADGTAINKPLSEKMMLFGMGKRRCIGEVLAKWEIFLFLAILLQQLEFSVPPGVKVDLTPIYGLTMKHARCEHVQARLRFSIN
Kind of series: CYP inhibition assay in human liver microsomes. It is filed as in vitro ADME. The settings on record: human liver microsomes, NADPH; read-out: CYPs 1A2 (IC50). The gist of the method:
as §1

A further series deals with LNCaP cells. Kind of series: Cell proliferation inhibition assay in LNCaP cells (0.2 nM DHT, CellTiter-Glo, 7 days). Format: cell-based, human. The following applies: Homo sapiens, LNCaP, 168 h. The gist of the method: (§2)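 22RV1 cells received compound alone; LNCaP cells were stimulated with 0.2 nM DHT added 1 h after compound. Seeding was 3000 cells/well.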
The next series concerns 22RV1 cells. Description: Cell proliferation inhibition assay in 22RV1 cells (CellTiter-Glo, 7 days). It is filed as cell-based, human. The following applies: Homo sapiens, 22Rv1, 168 h. The gist of the method: as §2
(In general: In ATP-based viability assays light output follows the ATP content of the culture.)

Where [3] appears, read: probe substrate midazolam, read-out: CYPs 3A4 (Midazolam) (IC50).
Where [4] appears, read: probe substrate testosterone, read-out: CYPs 3A4 (Testosterone) (IC50).

T4 sequence (P08684 whole entry): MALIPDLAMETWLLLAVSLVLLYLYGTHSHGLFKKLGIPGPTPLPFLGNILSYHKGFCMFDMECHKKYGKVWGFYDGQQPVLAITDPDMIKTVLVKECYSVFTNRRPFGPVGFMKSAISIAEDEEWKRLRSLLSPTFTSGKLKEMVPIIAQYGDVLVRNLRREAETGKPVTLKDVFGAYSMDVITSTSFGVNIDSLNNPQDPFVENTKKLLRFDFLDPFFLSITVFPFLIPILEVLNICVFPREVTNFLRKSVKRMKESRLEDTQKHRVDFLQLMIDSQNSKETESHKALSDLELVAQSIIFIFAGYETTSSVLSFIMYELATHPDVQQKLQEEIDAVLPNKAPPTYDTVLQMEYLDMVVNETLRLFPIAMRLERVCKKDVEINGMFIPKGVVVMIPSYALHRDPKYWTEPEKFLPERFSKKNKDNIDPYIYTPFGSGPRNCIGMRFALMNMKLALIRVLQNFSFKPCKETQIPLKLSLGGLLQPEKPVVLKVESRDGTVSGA
T3 sequence (P11712 whole entry): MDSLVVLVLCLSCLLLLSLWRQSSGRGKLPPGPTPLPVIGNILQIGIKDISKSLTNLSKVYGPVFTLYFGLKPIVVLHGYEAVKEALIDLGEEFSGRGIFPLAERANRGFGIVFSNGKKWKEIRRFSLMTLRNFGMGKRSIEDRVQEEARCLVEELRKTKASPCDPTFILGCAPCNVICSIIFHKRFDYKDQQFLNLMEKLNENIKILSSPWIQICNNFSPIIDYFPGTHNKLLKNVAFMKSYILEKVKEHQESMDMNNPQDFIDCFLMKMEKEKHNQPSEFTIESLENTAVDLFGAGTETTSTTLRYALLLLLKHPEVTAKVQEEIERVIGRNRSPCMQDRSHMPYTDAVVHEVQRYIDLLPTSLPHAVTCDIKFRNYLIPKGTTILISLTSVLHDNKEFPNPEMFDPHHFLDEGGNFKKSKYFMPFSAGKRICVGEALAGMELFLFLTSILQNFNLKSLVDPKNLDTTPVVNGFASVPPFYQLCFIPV
T2 sequence (P10635 whole entry): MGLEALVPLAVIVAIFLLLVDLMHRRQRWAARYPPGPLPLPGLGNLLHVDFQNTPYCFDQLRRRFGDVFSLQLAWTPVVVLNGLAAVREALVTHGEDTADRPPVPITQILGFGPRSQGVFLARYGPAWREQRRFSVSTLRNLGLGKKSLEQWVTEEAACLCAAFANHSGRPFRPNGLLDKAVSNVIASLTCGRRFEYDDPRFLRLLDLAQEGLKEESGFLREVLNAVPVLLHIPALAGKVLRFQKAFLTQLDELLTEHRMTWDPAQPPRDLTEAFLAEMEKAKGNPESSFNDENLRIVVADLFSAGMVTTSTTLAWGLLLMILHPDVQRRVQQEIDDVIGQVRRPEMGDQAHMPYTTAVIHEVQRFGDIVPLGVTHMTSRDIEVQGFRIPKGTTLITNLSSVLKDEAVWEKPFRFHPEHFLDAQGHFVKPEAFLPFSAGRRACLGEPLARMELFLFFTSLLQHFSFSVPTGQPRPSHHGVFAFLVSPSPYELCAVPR
T1 sequence (P33261 whole entry): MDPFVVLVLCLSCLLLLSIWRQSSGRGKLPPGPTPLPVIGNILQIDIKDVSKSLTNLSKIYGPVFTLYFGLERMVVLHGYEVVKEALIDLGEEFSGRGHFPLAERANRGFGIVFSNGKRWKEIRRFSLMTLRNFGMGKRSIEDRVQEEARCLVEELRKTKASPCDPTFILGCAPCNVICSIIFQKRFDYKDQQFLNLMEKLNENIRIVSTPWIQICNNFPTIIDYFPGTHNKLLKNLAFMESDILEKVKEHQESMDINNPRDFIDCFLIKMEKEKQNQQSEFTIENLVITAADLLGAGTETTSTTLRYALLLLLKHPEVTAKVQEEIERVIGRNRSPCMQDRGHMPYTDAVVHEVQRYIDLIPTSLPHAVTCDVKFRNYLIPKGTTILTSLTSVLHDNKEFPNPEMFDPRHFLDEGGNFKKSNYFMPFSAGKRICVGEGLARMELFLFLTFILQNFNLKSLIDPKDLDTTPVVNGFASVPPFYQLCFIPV

The molecule `CC(C)(c1ccc(-c2cnc(OCc3ccnc(N4CC([S@@](C)(=N)=O)C4)n3)cn2)cc1)c1cc(Cl)c(OCCCl)c(C#N)c1` (single isomer, unassigned) [Compound 323B] came in with a total exposure AUC(0-inf) in series [1] (po, 30 mg/kg, PO-30mpk) of 1180 µg·h/mL. In series [1] (po, 30 mg/kg, PO-30mpk), the Cmax turned out to be 108 µg/mL. Also, in series [1] (po, 30 mg/kg, PO-30mpk), the half-life is 6.05 h. Besides, the Tmax in series [1] (po, 30 mg/kg, PO-30mpk) came to 2.7 h. Moreover, the IC50 is above 10 µM on CYP2C19; above 10 µM at CYP2D6; 2.9 µM at CYP2C9; above 10 µM in [2] (setting [3]); above 10 µM in [2] (setting [4]); above 10 µM on CYP2C8. Moreover, the IC50 is above 10 µM on CYP1A2 and 0.58 µM in the series on LNCaP cells.

In the case of `CC(C)(c1ccc(-c2cnc(OCc3ccnc(N4CC(S(C)(=O)=O)C4)n3)cn2)cc1)c1cc(Cl)c(OCCCl)c(C#N)c1` [Compound 262], the C0 in series [1] (0.5 mg/kg, IV-0.5mpk) is 1.79 µg/mL. The clearance in [1] (0.5 mg/kg, IV-0.5mpk) is 0.55 mL/min/kg. The molecule further showed a bioavailability in series [1] (30 mg/kg, PO-30mpk vs IV-0.5mpk) of 71.2%. Besides, the AUC(0-inf) in [1] (iv, 0.5 mg/kg, IV-0.5mpk) turned out to be 15.2 µg·h/mL; in series [1] (po, 30 mg/kg, PO-30mpk) it was 648 µg·h/mL. Further, the half-life in [1] (iv, 0.5 mg/kg, IV-0.5mpk) was 10.8 h; in series [1] (po, 30 mg/kg, PO-30mpk), 5.2 h. For the same molecule, the Cmax in [1] (po, 30 mg/kg, PO-30mpk) was found to be 74.7 µg/mL. In series [1] (po, 30 mg/kg, PO-30mpk), the Tmax was 2 h. Besides, the IC50 at CYP2C19 is above 10 µM; on CYP2D6 it was above 10 µM; on CYP2C9, 8.3 µM; in series [2] (setting [3]), above 10 µM; in series [2] (setting [4]) it was above 10 µM; at CYP2C8 it was above 10 µM. Further, the IC50 on CYP1A2 was above 10 µM; in the series on 22RV1 cells, 0.14 µM; in the series on LNCaP cells, 0.34 µM.
